Here are results for ten molecules from patent US20260159512A1, “BCAT2 INHIBITORS” (AGIOS PHARMACEUTICALS, INC., priority 2021, published 2026).

What all share (details): average where tested multiple times
Assay [1] concerns the target T1, BCAT2 (Homo sapiens, UniProt O15382).
T1 sequence (O15382 28-392): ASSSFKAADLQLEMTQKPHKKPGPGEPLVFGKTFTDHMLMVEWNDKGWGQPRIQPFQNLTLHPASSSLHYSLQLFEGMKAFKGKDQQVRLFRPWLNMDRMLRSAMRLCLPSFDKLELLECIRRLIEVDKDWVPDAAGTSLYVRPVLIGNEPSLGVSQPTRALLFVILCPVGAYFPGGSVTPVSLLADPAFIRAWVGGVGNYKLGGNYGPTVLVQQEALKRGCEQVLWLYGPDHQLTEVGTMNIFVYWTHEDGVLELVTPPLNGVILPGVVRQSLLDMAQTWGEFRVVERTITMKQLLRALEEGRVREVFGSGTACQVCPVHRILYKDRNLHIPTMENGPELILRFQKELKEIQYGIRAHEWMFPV
Nature of the assay: BCAT2 in vitro cell inhibition using engineered A549 cells (KMV cell assay, 13C6-KMV by LC-MS/MS). Format: cell-based. Also noted: The result was an engineered A549 cell line that expressed endogenous BCAT2; endogenous in cells; host or cells: A549 cells with MUT and BCAT1 knocked out by CRISPR/CAS9; key to BCAT2 Cell Inhibition: A: less than or equal to 0.100 μM; B: greater than 0.100 and less than or equal to 0.500 μM; C: greater than 0.500 and less than or equal to 1.000 μM; d: greater than 1.000 μM; E: no fit.

Assay [2] deals with T1, BCAT2. Kind of assay: BCAT2 in vitro enzyme inhibition assay (resazurin/diaphorase-coupled fluorescence). Format: biochemical. In a few lines: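 Coupled fluorescence readout: glutamate formed from L-leucine/α-ketoglutarate transamination drives GDH/NAD/diaphorase reduction of resazurin (Ex 540/Em 590). Human BCAT2 was first exposed 1 h at room temperature to compound, top final 100 μM in 3-fold, 10-point series; substrate reaction ran 1 h before SDS quench, in technical duplicate with DMSO max and enzyme-free min controls.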
(In general: The colour change of resazurin is a common sign of viable cells or microbes.)

The target of assay [3] is T2, hBCAT1 (Homo sapiens, UniProt P54687).
T2 sequence (P54687 1-386): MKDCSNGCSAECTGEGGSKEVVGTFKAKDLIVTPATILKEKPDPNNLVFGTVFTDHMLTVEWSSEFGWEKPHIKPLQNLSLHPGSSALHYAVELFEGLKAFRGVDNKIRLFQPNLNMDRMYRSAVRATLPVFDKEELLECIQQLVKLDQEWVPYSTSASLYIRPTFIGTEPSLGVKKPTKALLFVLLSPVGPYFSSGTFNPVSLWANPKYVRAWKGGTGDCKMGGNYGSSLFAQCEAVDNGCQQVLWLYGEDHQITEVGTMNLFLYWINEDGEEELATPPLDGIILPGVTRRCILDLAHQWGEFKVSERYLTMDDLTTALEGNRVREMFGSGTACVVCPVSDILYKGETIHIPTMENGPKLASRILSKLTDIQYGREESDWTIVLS
Nature of the assay: BCAT1 in vitro enzyme inhibition assay (resazurin/diaphorase-coupled fluorescence). Format: biochemical. In a few lines: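 Human BCAT1 activity read by resazurin/diaphorase-coupled fluorescence. Compounds added from 50× DMSO stocks at 1:50, giving 10-point 3-fold titrations from 100 μM top final concentration. Run in technical duplicate; repeat tests averaged.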

Bounds are passed on as bounds.

As for `CC(C)Cc1nc2cnc(-n3nccn3)cc2n1[C@@H]1C[C@@H](O)C[C@H](NC(=O)c2ccc(Cl)s2)C1` (single isomer, unassigned) [Example 395], the IC50 in assay [1] is not above 100 nM; in assay [2], not above 100 nM; in assay [3], less than 500 nM.
As to `Cn1cc(-c2nc3cnc(-n4ccnn4)cc3n2[C@@H]2CCC[C@H](NC(=O)c3ncc(C(F)F)s3)C2)cn1` [Example 46, 5-(difluoromethyl)-N-((1S,3R)-3-(2-(1-methyl-1H-pyrazol-4-yl)-6-(1H-1,2,3-triazol-1-yl)-1H-imidazo[4,5-c]pyridin-1-yl)cyclohexyl)thiazole-2-carboxamide], in assay [1], the “BCAT2 Cell Inhibition” value is on record as “E”. Besides, the results for the half-inhibitory concentration (IC50) in assay [2] and in assay [3] were more than 1000 nM and more than 5000 nM, respectively.
For `O=C(N[C@H]1CCC[C@@H](n2c(C3CCCOC3)nc3cnc(-c4nc[nH]n4)cc32)C1)c1ncc(Cl)s1` (single isomer, unassigned) [Example 103], the concentration for half-maximal inhibition (IC50) was 100 to 500 nM in assay [1], not above 100 nM in assay [2] and 500 to 1000 nM in assay [3].
The corresponding values for `COC(=O)N1C[C@H](NC(=O)c2ccc(Cl)s2)C[C@H](n2c(-c3ccccc3F)nc3cnc(-c4nc[nH]n4)cc32)C1` [Example 462, methyl (3R,5S)-3-(5-chlorothiophene-2-carboxamido)-5-(2-(2-fluorophenyl)-6-(1H-1,2,4-triazol-3-yl)-1H-imidazo[4,5-c]pyridin-1-yl)piperidine-1-carboxylate] are not above 100 nM, not above 100 nM and less than 500 nM.
On the same counts, the results for `CO[C@H]1C[C@H](NC(=O)c2ncc(Cl)s2)C[C@H](n2c(CC(C)C)nc3cnc(-n4cncn4)cc32)C1` [Example 417, 5-chloro-N-((1R,3S,5S)-3-(2-isobutyl-6-(1H-1,2,4-triazol-1-yl)-1H-imidazo[4,5-c]pyridin-1-yl)-5-methoxycyclohexyl)thiazole-2-carboxamide] are more than 1000 nM, 100 to 500 nM and 1000 to 5000 nM.
Turning to `CC(C)Cc1nc2cnc(-n3ncc(CO)n3)cc2n1[C@@H]1CCC[C@H](NC(=O)c2ncc(Cl)s2)C1` [Example 337, 5-chloro-N-((1S,3R)-3-(6-(4-(hydroxymethyl)-2H-1,2,3-triazol-2-yl)-2-isobutyl-1H-imidazo[4,5-c]pyridin-1-yl)cyclohexyl)thiazole-2-carboxamide], the 50% inhibitory concentration (IC50) in assay [1] is 500 to 1000 nM; in assay [2] it was not above 100 nM; in assay [3] it was less than 500 nM.
The corresponding values for `O=C(N[C@H]1CCC[C@@H](n2c(-c3ccccc3F)nc3cnc(-c4ncccn4)cc32)[C@@H]1O)c1ncc(Cl)s1` [Example 245, 5-chloro-N-((1S,2R,3R)-3-(2-(2-fluorophenyl)-6-(pyrimidin-2-yl)-1H-imidazo[4,5-c]pyridin-1-yl)-2-hydroxycyclohexyl)thiazole-2-carboxamide] are not above 100 nM, not above 100 nM and less than 500 nM.
The corresponding values for `CC(C)C(F)c1nc2cnc(-c3ccccn3)cc2n1[C@@H]1CCC[C@H](NC(=O)c2ncc(Cl)s2)C1` (stereo partly drawn) [Example 322, 5-chloro-N-((1S,3R)-3-(2-(1-fluoro-2-methylpropyl)-6-(pyridin-2-yl)-1H-imidazo[4,5-c]pyridin-1-yl)cyclohexyl)thiazole-2-carboxamide] are 500 to 1000 nM, not above 100 nM and 1000 to 5000 nM.
The corresponding values for `CC(C)Cc1nc2cnc(-c3ccn[nH]3)cc2n1[C@@H]1CCC[C@H](NC(=O)c2ncc(Cl)s2)[C@H]1O` [Example 225, 5-chloro-N-((1S,2R,3R)-2-hydroxy-3-(2-isobutyl-6-(1H-pyrazol-5-yl)-1H-imidazo[4,5-c]pyridin-1-yl)cyclohexyl)thiazole-2-carboxamide] are 100 to 500 nM, not above 100 nM and less than 500 nM.
Consider `CN1C[C@@H](NC(=O)c2ncc(Cl)s2)C[C@@H](n2c(-c3ccccc3F)nc3cnc(-c4nc[nH]n4)cc32)C1` (single isomer, unassigned) [Example 133], for which the IC50 in assay [1] was more than 1000 nM; in assay [2], 100 to 500 nM; in assay [3], 1000 to 5000 nM.

The term IC50 denotes the concentration that inhibits the measured activity by half.
